Experimental data: EP0457908A1, “HYDROCHLORIDE 2,3,3a,4,5,6-HEXAHYDRO-8-CYCLOHEXYL-1H-PYRAZINO (3,2,1-j,k)CARBAZOL, METHOD OF OBTAINING IT AND A PHARMACEUTICAL PREPARATION OF ANTIDEPRESSIVE ACTION BASED ON IT” (priority 1989, dated 1991)
Counter-ions that a name gives are not always drawn.

Legend:
[1] = test system: male white mice; test: Hyperlocomotion induced by d,l-amphetamine; type: in vivo; conditions: 10-20 minutes after d,l-amphetamine 2.5 mg/kg intraperitoneally, distilled water 1,924.5±177.6
Method: The influence on hyperlocomotion induced by d,l-amphetamine was studied in experiments on male white mice with a mass of 20-22 g.
The locomotive activity of the mice was recorded 10-20 minutes after administration of d,l-amphetamine for 10 minutes.

[2] = test system: cats; test: Bioelectrical activity of the brain (electroencephalogram), cats; type: in vivo; conditions: for effect on the electroencephalogram: dose and species not given
Source text: The study of the effect on the bioelectrical activity of the brain was effected in acute experiments using 8 consious cats immobilized with diplacin with a mass of 2.5-3.4 kg under conditions of a controlled breathing and 25 rabbits with a mass of 2.6-3.1 kg with chronically implanted electrodes. Recorded on an electroencephalograph was an electroencephalogram of the sensomotor, parietal and visual regions of the cerebral cortex in cats, plus that of the reticular formation of the midbrain, dorsal hippocamp and amygdala in rabbits.

[3] = test system: white mice; test: Porsolt's swimming behaviour test (duration of immobilization); type: in vivo; conditions: for Duration of immobilization, %: distilled water = 100
Method: The effect of the compound according to the present invention on the duration of immobilization in Porsolt's swimming behaviour test (Porsolt et al., 1977) in experiments on white mice of both sexes with a mass of 16-18 g. […] Sixty minutes after the last (or a single) administration of the preparations, the mice were placed into cylinders (10 cm diameter, 25 cm height) filled with water to 6 cm. The temperature of water was 21-22 °C. […] The number and duration of all stops in swimming (immobilization) over the observation period were recorded.

[4] = test system: white rats; test: Stereotypy induced by d,l-amphetamine; type: in vivo; conditions: distilled water = 100
Method: To evaluate the influence on stereotypy, the experiments were carried out on white rats of both sexes with a mass of 100-150 g. […] Stereotypy was assessed in points of from to 3 (after Janssen et al., 1967).

[5] = test system: male rats; test: Conditional reflex of passive avoidance after amnesia (antiamnestic effect); type: in vivo; conditions: for Number of rats, %, remained on the platform for 1 minute, 2.5 hours after administration of scopolamine (1 mg/kg hypodermally): amnesia control 10±3.3, distilled water 85±2.0; for Number of rats, %, remained on the platform for 1 minute, 1 day after electric shock: electroshock alone 14.2±3.0, distilled water 85±2.0
Method: Also studied was the effect of the compound according to the present invention on reproduction of the memory traces upon amnesia.
The experiments were carried out using male rats of a mass of 180-220 g.
The antiamnestic effect of the compound according to the present invention was assessed by the method of a conditional reflex of a passive avoidance with a subsequent use, as amnesic factors, of an electric shock (50 mA, 0.3 ms) through ear electrodes or scopolamine (1 mg/kg hypodermally).
The learning of the conditional reflex of a passive avoidance was effected by the "Step-down" method (Izquerdo, 1981) in an experimental unit consisting of a 30x30x40 cm chamber with an electrified floor having in its centre a plastic platform of 10x15x0.5 cm size. A rat was placed onto the platform and a latent period of its escape therefrom was recorded (in seconds). When escaping the platform onto the floor, the rat was subjected to an electric irritation on paws (0.5 mA, 10 seconds) that made it to climb the platform. The learning course took 6 sessions, each of 3 minutes duration. The conditional response was regarded as acquired if an animal remained on the platform for 1 minute.
The amnesic effect was produced immediately after learning course and 30 minutes thereafter the compound according to the present invention was administered in the doses of 1 and 3 mg/kg or (for comparison) pyracetam was administered in the doses of 100, 300, 600 and 1,000 mg/kg. The reproduction of the memory trace was assessed 24 hours after the electric shock and 2.5 hours after administration of scopolamine.

[6] = test system: white mice; test: Enhancement of the effect of 5-hydroxytryptophane (head shaking); type: in vivo; conditions: Mus musculus, po, 25 min; orally, 60 minutes prior to 5-hydroxytryptophane 50 mg/kg intraperitoneally; read 25 minutes after; read-out: ED₅₀, the dose at which head shaking were noticed in 50% of the animals
Method: The compound according to the present invention was tasted for the exciting effect of 5-hydroxytryptophane (head shaking).
The compound according to the present invention in the doses of 1.0, 2.5, 5.0 and 10 mg/kg was administered orally 60 minutes prior to an intraperitoneal administration of 5-hydroxytryptophane (50 mg/kg).

[7] = Pharmacokinetics: penetration into and stay in the brain tissues; conditions: in vivo
[8] = 5-days' administration, 10.0 mg/kg orally (dose from row order)
[9] = 5-days' administration, 25.0 mg/kg orally (dose from row order)
[10] = 18-days' administration, 10.0 mg/kg orally (dose from row order)
[11] = 18-days' administration, 25.0 mg/kg orally (dose from row order)
[12] = single administration, 10.0 mg/kg orally
[13] = single administration, 25.0 mg/kg orally

| Structure (SMILES) | Average value of locomotor activity of a group of 5 mice for 10 minutes ([1]; 5.0 mg/kg oral) | Average value of locomotor activity of a group of 5 mice for 10 minutes ([1]; 10.0 mg/kg oral) | effect on the electroencephalogram [2] | Duration of immobilization, Seconds, M±m [3, 8] [s] | Duration of immobilization, % [3, 8] [%] | Duration of immobilization, Seconds, M±m [3, 9] [s] | Duration of immobilization, % [3, 9] [%] | Duration of immobilization, Seconds, M±m [3, 10] [s] | Duration of immobilization, % [3, 10] [%] | Duration of immobilization, Seconds, M±m [3, 11] [s] | Duration of immobilization, % [3, 11] [%] | Duration of immobilization, Seconds, M±m [3, 12] [s] | Duration of immobilization, % [3, 12] [%] | Duration of immobilization, % [3, 13] [%] | Stereotypy (tolal, for 4 measurements for 4 hours after hypodermal administration of d,l-amphetamine), % ([4]; oral dose 5.0 mg/kg) [%] | Stereotypy (tolal, for 4 measurements for 4 hours after hypodermal administration of d,l-amphetamine), % ([4]; oral dose 10.0 mg/kg) [%] | further results |
| --- | --- | --- | --- | --- | --- | --- | --- | --- | --- | --- | --- | --- | --- | --- | --- | --- | --- |
| CN(C)CCCN1c2ccccc2CCc2ccccc21 [Imipramine, N-(3-dimethylaminopropyl)-aminodibenzyl hydrochloride] | 1,440.3±365.2 | 2,024.5±221.7 | synchronizing effect | 92 ± 5.9 | 59 | 61 ± 6.3 | 39 | 96 ± 9.8 | 52 | 66 ± 9.8 | 36 | 131 ± 5.6 | 88 | 70 | 200 | 306 |  |
| NC(=O)CN1CCCC1=O [Pyracetam] |  |  |  |  |  |  |  |  |  |  |  |  |  |  |  |  | Number of rats, %, remained on the platform for 1 minute, 2.5 hours after administration of scopolamine (1 mg/kg hypodermally) ([5]; 100 mg/kg oral): 12±5.5%; Number of rats, %, remained on the platform for 1 minute, 1 day after electric shock ([5]; 100 mg/kg oral): 12±3.3%; Number of rats, %, remained on the platform for 1 minute, 2.5 hours after administration of scopolamine (1 mg/kg hypodermally) ([5]; 300 mg/kg oral): 13±1.6%; Number of rats, %, remained on the platform for 1 minute, 1 day after electric shock ([5]; 300 mg/kg oral): 13±4.2%; Number of rats, %, remained on the platform for 1 minute, 2.5 hours after administration of scopolamine (1 mg/kg hypodermally) ([5]; 600 mg/kg oral): 20±5.5%; Number of rats, %, remained on the platform for 1 minute, 1 day after electric shock ([5]; 600 mg/kg oral): 12±3.3%; Number of rats, %, remained on the platform for 1 minute, 1 day after electric shock ([5]; 1000 mg/kg oral): 46±6.4% |
| Cc1ccc2c(c1)c1c3n2CCNC3CCC1 (stereo not shown) [Pyrazidol, 2,3,3a,4,5,6-hexahydro-8-methyl-1H-pyrazino(3,2,1-j,k)-carbazole hydrochloride] | 1,440.0±380.2 | 1,926.0±119.9 |  | 142 ± 5.7 | 87 | 116 ± 8.1 | 71 | 129 ± 8.0 | 70 | 112 ± 8.6 | 61 | 164 ± 5.9 | 93 | 82 | 165 | 210 | effect on the electroencephalogram of the cortex and subcortical structures of the brain ([2]; 1 to 5 mg/kg intravenously, species not specified): predominantly activating effect; Duration of immobilization, Seconds, M±m [3, 13]: 144 ± 9.9 s; ED50 [6]: 20 mg/kg; time the drug remains in the brain tissues [7]: at most 1.5 hours |
| CN(C)CCC=C1c2ccccc2CCc2ccccc21 [amitryptyline, reference compound] |  |  | synchronizing effect |  |  |  |  |  |  |  |  |  |  |  |  |  |  |
